Measured values reported in patent US20220233652A1, “Pharmaceutical Compositions Comprising Integration-Promoting Peptides” (priority 2018, published 2022).

Columns and labels:
Type in all cases: in vivo, athymic nude mice
[1] = system: 1975 human lung cancer cells; assay: Lung cancer tumor mice model; conditions: for Inhibition of growth of lung cancer tumors relative to control: day 11
Description: (§1) Two models of cancer were generated: lung cancer and pancreatic cancer. About 5×10^6 of 1975 human lung cancer cells per 0.1 ml PBS per mouse were injected to male 7 weeks old athymic nude mice (n=30). The cells were injected, subcutaneously at one site on the back of the mice. About 5×10^6 PANC-1 human pancreatic cancer cells per 0.1 ml PBS per mouse were injected to male 7 weeks old athymic nude mice (n=22). The cells were injected, subcutaneously at one site on the back of the mice. When tumors were palpable (˜0.3-0.5 cm^3), the mice were randomly divided into three groups (Table 27) and the viruses and/or peptides were injected, twice a week for two weeks.
(§2) The first day of the study was defined as ‘Day 1’. The animals were administrated IP with either Vehicle (PBS or Formulation), lentiviral particles and SC with test items according to Table 27 on days 1, 4, 8 and 11. Body weight and tumor volume were checked on days 3, 7, 11, 14 and 17 (the latter was measured with a caliper). At the end of the experiment, on day 17, the mice were anesthetized and then sacrificed, and the tumors were removed, as well as lung, spleen, kidney and liver.

[2] = system: PANC-1 human pancreatic cancer cells; assay: Pancreatic cancer tumor mice model; conditions: day 17
Description: as §1, §2

[3] = Mortality, body weight and safety in tumor mice models; conditions: lung and pancreatic cancer models
Description: • 1. Mortality—every day • 2. Tumor measurements—twice a week • 3. Tumor weight post mortem • 4. Tissue preservation—kept in formalin or were snap freezed and kept at −80° C.
as §2

Sequence: WTAVQMAVFIHNFKRK [INS]
- Inhibition of growth of lung cancer tumors relative to control ([1]; lentiviral particles IP + INS peptide 1.25 mg/kg SC on days 1, 4, 8, 11): 50%
- Inhibition of growth of lung cancer tumors relative to control ([1]; lentiviral particles IP + INS peptide 2.5 mg/kg SC on days 1, 4, 8, 11): 50%
- Comparison of doses at the end of the experiment ([1]; day 17, INS 1.25 mg/kg versus 2.5 mg/kg, with lentiviral particles): better results than with INS 2.5 mg/kg
- Reduction of weight of tumors relative to control ([2]; lentiviral particles + INS 1.25 mg/kg SC): 25%
- Reduction of weight of tumors relative to control ([2]; lentiviral particles + INS 2.5 mg/kg SC): 50%
- Mortality ([3]; 17 days): No animal was found dead or in morbid state
- Body weight ([3]; mice gained weight as expected): no differences between groups
